{"source": "patent US20050176010A1", "about": "“Regulation of human transient receptor potential channel” (Bayer HealthCare AG, priority 2002, published 2005)", "origin": "cited, not measured here", "key": {"[1]": {"molecular_target": "mouse TRPM8 (Mus musculus, UniProt Q8R4D5)", "sequence (Q8R4D5 whole entry)": "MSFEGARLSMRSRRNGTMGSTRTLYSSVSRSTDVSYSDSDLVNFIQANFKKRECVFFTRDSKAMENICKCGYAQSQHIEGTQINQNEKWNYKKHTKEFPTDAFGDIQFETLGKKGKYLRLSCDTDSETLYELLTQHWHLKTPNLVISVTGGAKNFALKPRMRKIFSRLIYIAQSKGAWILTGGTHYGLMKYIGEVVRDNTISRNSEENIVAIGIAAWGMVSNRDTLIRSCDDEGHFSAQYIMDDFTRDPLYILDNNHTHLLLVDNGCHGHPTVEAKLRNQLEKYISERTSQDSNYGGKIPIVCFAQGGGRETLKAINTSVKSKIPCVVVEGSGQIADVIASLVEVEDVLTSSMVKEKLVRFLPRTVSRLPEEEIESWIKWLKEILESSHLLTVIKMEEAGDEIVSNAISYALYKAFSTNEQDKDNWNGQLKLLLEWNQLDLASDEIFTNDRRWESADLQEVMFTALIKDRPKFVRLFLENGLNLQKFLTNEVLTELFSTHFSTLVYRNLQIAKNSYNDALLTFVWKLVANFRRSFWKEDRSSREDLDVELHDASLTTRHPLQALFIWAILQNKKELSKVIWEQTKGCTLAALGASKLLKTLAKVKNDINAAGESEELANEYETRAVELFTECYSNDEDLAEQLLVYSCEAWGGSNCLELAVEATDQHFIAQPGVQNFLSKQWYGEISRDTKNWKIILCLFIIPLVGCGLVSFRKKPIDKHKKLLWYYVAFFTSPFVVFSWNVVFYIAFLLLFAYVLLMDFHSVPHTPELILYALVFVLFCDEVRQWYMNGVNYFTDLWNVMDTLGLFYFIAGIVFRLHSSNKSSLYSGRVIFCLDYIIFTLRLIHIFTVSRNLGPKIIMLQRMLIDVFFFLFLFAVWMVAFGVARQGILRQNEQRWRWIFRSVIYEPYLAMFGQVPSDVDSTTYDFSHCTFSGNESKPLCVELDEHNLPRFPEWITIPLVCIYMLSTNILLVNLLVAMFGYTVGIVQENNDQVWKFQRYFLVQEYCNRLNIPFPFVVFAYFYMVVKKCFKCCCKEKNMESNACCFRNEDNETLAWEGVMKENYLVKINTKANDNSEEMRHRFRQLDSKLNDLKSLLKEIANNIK", "conditions": "Peier et al., Cell 2002"}, "[2]": {"molecular_target": "cold- and menthol-sensitive receptor (CMR1) (Rattus norvegicus, UniProt Q8R455)", "sequence (Q8R455 whole entry)": "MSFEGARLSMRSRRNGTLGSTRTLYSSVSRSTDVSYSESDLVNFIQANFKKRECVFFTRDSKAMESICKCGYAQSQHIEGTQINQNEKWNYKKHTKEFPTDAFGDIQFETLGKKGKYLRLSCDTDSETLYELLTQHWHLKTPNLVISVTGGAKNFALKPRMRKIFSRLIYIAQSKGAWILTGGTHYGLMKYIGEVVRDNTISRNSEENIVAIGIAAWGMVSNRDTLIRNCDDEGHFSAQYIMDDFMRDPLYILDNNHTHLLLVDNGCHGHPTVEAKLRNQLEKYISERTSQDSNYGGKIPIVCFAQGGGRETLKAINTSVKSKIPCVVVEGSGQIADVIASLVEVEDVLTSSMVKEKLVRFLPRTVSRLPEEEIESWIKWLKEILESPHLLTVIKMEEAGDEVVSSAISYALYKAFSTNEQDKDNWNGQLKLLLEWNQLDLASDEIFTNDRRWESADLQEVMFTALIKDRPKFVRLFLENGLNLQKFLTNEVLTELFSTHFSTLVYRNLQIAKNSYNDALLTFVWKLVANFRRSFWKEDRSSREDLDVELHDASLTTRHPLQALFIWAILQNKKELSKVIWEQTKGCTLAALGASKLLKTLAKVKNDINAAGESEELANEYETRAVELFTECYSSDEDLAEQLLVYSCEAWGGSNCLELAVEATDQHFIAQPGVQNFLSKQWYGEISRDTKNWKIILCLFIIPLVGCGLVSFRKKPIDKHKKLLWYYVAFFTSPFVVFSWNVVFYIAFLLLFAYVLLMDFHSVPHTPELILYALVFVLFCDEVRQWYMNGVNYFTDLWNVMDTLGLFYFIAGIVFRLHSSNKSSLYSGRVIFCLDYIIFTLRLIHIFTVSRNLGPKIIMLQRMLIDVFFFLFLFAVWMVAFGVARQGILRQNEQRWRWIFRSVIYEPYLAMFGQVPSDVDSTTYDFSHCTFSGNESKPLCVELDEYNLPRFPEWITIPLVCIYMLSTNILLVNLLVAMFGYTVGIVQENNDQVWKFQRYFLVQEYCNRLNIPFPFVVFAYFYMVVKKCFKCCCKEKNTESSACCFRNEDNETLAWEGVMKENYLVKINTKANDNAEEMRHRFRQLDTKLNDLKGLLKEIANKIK", "conditions": "McKemy et al., Nature 2002"}, "[3]": {"tested_on": "cold receptors", "conditions": "animals; Lindstrom and Mazieres 1991, Mazieres et al. 1998"}, "[4]": {"tested_on": "cold receptors", "conditions": "all tested patients; Geirsson, J. Urol. 1993"}}, "data": [{"smiles": "CC1CCC(C(C)C)C(O)C1", "note": "(stereo not shown) [menthol]", "values": [{"measurement": "gating of the ion channel", "setting": "[1]", "value": "gated by cold stimuli and menthol"}, {"measurement": "activation of the channel receptor CMR1", "setting": "[2]", "value": "activated"}, {"measurement": "temperature response curve of the bladder cooling reflex", "setting": "[3]", "value": "shifts the temperature response curve of the bladder cooling reflex towards higher temperatures"}, {"measurement": "threshold temperature of the cooling reflex", "setting": "[4]", "value": "shift of the threshold temperature of the cooling reflex towards a higher value"}]}]}
